Experimental data from patent US12171230B2, “Herbicidal compositions” (Bayer Aktiengesellschaft, priority 2018, dated 2024).
Where “and” joins values, the source holds several entries; their conditions need not be identical. Equal entries are not always repeated.

Legend:
Format in all cases: in vivo
[1] = tested on: Abutilon theophrasti; assay: Post-emergence herbicidal action against Abutilon theophrasti; settings: 21 DAT
[2] = tested on: Polygonum convolvulus; assay: Post-emergence herbicidal action against Polygonum convolvulus
Source text: (§1) The following abbreviations are used in the description and the tables that follow: • g of a.i./ha=grams of active substance (active ingredient) (=100% active compound) per hectare; • The sum total of the effects of the individual applications is reported under E^A; • expected values according to Colby are each reported under E^C.
(§2) The rating period is reported in days after application (DAT).

[3] = tested on: Eleusine indica; assay: Post-emergence herbicidal action against Eleusine indica; settings: (Z3) post-emergence, g of a.i./ha: 270, 90, 15, 5, 5 + 270, 15 + 90
Source text: as §1, §2

[4] = tested on: Lysimachia nummularia; assay: Post-emergence herbicidal action against Lysimachia nummularia; settings: 45 DAT; 100 g a.i./ha
[5] = tested on: Lolium rigidum (resistant biotype); assay: Post-emergence herbicidal action against Lolium rigidum (resistant biotype)
[6] = tested on: Viola tricolor; assay: Post-emergence herbicidal action against Viola tricolor
[7] = tested on: Pharbitis purpurea; assay: Post-emergence herbicidal action against Pharbitis purpurea; settings: for Herbicidal action 21 DAT [%] against Pharbitis purpurea: post-emergence
Method in brief: (§3)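 Visual scoring against untreated controls, made 3 to 4 weeks after treatment, gives the % efficacy. Plants grown in pots of sandy loam were sprayed on green parts at the three-leaf stage with formulated compositions at 300 to 800 l/ha water. Combination efficacy above the Colby expected value indicates synergism.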

[8] = tested on: Alopecurus myosuroides; assay: Post-emergence herbicidal action against Alopecurus myosuroides
[9] = tested on: Brachiaria platyphylla; assay: Post-emergence herbicidal action against Brachiaria platyphylla
Method in brief: as §3

[10] = tested on: Malva pusilia; assay: Post-emergence herbicidal action against Malva pusilia; settings: 42 DAT; 100 g a.i./ha
[11] = tested on: Phalaris minor; assay: Post-emergence herbicidal action against Phalaris minor
[12] = tested on: Alopecurus myosuroides; assay: Post-emergence herbicidal action against Alopecurus myosuroides; remark: listed apart in the source
[13] = tested on: Bromus sterilis; assay: Post-emergence herbicidal action against Bromus sterilis; settings: 14 DAT; 1 g a.i./ha
[14] = tested on: Abutilon theophrasti; assay: Post-emergence herbicidal action against Abutilon theophrasti; settings: 100 g of a.i./ha
[15] = tested on: Veronica hederifolia; assay: Post-emergence herbicidal action against Veronica hederifolia
[16] = tested on: Phalaris minor; assay: Post-emergence herbicidal action against Phalaris minor; remark: listed apart in the source
[17] = tested on: Viola tricolor; assay: Post-emergence herbicidal action against Viola tricolor; remark: listed apart in the source
[18] = tested on: Ranunculus repens; assay: Post-emergence herbicidal action against Ranunculus repens; settings: 100 g of a.i./ha
Procedure: When the observed efficacies exceed the formal sum total of the values of the tests with individual applications, they also exceed the expected value according to Colby, which is calculated using the formula below and is likewise regarded as an indication of synergism (cf. S. R. Colby; in Weeds 15 (1967) p. 20 to 22): E^C=A+B−([…])
Here: • A=efficacy of the active compound (A) in % at an application rate of a g a.i./ha; • B=efficacy of the active compound (B) in % at an application rate of b g a.i./ha; • E^C=expected value of the effect of the combination (A)+(B) in % at the combined application rate a+b g a.i./ha.
Seeds or rhizome pieces of mono- and dicotyledonous weeds are placed in sandy loam in pots, covered with soil and grown in a greenhouse under good growth conditions (temperature, air humidity, water supply). Three weeks after sowing, the test plants were treated at the three-leaf stage with the compositions according to the invention. The compositions according to the invention formulated as spray powders or as emulsion concentrates were sprayed onto the green plant parts in various dosages with an application rate of 300 to 800 l/ha of water (equivalent). […] The compositions according to the invention also have good post-emergence herbicidal activity against a broad spectrum of economically important gramineous and broadleaf weeds.

[19] = tested on: Bromus sterilis; assay: Post-emergence herbicidal action against Bromus sterilis
[20] = tested on: Lolium rigidum (resistant biotype); assay: Post-emergence herbicidal action against Lolium rigidum (resistant biotype); remark: listed apart in the source

With `O=C(Nc1ccc(F)cc1F)c1cccnc1Oc1cccc(C(F)(F)F)c1` [(B2.18) Diflufenican] the “Herbicidal action against Abutilon theophrasti” value ([1]; 30 g of a.i./ha) was 10%, the “Herbicidal action against Abutilon theophrasti” value ([1]; 90 g of a.i./ha) was 10% and the “Herbicidal action against Abutilon theophrasti” value ([1]; 270 g of a.i./ha) was 25%. The “Herbicidal action 21 DAT against Polygonum convolvulus” value ([2]; g of a.i./ha: 90, 30, 45, 45 + 90, 45 + 30, 30 g of a.i./ha) was 10%, the “Herbicidal action 21 DAT against Polygonum convolvulus” value ([2]; g of a.i./ha: 90, 30, 45, 45 + 90, 45 + 30, 90 g of a.i./ha) was 20% and the “Herbicidal action 21 DAT against Eleusine indica” value ([3]; 90 g of a.i./ha) was 20%. The “Herbicidal action 21 DAT against Eleusine indica” value ([3]; 270 g of a.i./ha) was 30%.
`C=C[C@]1(C(=O)N[C@H]2CO[C@@H](C(=O)OC)C2)CC(c2cc(F)cc(F)c2)=NO1` (relative stereo) [Compound A3, methyl rel-(2R,4R)-4-[[(5S)-3-(3,5-difluorophenyl)-5-vinyl-4H-isoxazole-5-carbonyl]amino]tetrahydrofuran-2-carboxylate] was tested, and the Herbicidal action [4] was 18%, the “Herbicidal action against Lolium rigidum (resistant biotype)” value (from here on “Herbicidal action against Lolium rigidum”) ([5]; 14 DAT, 1 g of a.i./ha) was 15% and the “Herbicidal action against Lolium rigidum” value ([5]; 14 DAT, 4 g of a.i./ha) was 40%. For the same compound, the “Herbicidal action against Lolium rigidum” value ([5]; 28 DAT, 1 g of a.i./ha) was 0%, the “Herbicidal action in [%] 14 DAT against Viola tricolor” value ([6]; 1 g of a.i./ha) was 50% and the “Herbicidal action in [%] 28 DAT against Viola tricolor” value ([6]; 1 g of a.i./ha) was 15%. The “Herbicidal action in [%] 28 DAT against Viola tricolor” value ([6]; 4 g of a.i./ha) was 30%, the “Herbicidal action 21 DAT against Pharbitis purpurea” value ([7]; 5 g of a.i./ha) was 80% and the “Herbicidal action 21 DAT [%] against Pharbitis purpurea” value ([7]; 5 g of a.i./ha) was 80%. For the same compound, the “Herbicidal action 21 DAT [%] against Pharbitis purpurea” value ([7]; 21 DAT, 5 g of a.i./ha) was 85%, the “Herbicidal action 21 DAT [%] against Pharbitis purpurea” value ([7]; 21 DAT, 15 g of a.i./ha) was 85% and the “Herbicidal action in [%] 14 DAT against Alopecurus myosuroides” value ([8]; 1 g of a.i./ha) was 15% and 30%. For the same compound, the “Herbicidal action in [%] 28 DAT against Alopecurus myosuroides” value ([8]; 1 g of a.i./ha) was 15% and 10%, the “Herbicidal action in [%] 14 DAT against Alopecurus myosuroides” value ([8]; 1 g of a.i./ha, second 14 DAT block) was 35% and the “Herbicidal action in [%] 14 DAT against Alopecurus myosuroides” value ([8]; 4 g of a.i./ha) was 90% and 75%. For the same compound, the “Herbicidal action in [%] 28 DAT against Alopecurus myosuroides” value ([8]; 4 g of a.i./ha) was 50% and 60%, the “Herbicidal action in [%] 28 DAT against Alopecurus myosuroides” value ([8]; 16 g of a.i./ha) was 90% and the “Herbicidal action 21 DAT [%] against Brachiaria platyphylla” value ([9]; 1.7 g of a.i./ha) was 20%. The “Herbicidal action 21 DAT against Brachiaria platyphylla” value ([9]; 1.7 g of a.i./ha) was 20%, the “Herbicidal action 21 DAT [%] against Brachiaria platyphylla” value ([9]; 1.7 g of a.i./ha, post-emergence, block with (B1.14) Tembotrione) was 20% and the “Herbicidal action 21 DAT [%] against Brachiaria platyphylla” value ([9]; 1.7 g of a.i./ha, post-emergence, block with (B9.10) Saflufenacil) was 20%. For the same compound, the “Herbicidal action 21 DAT [%] against Brachiaria platyphylla” value ([9]; 5 g of a.i./ha) was 80%, the Herbicidal action [10] was 50% and the “Herbicidal action in [%] 14 DAT against Phalaris minor” value ([11]; 1 g of a.i./ha) was 10% and 20%. The “Herbicidal action in [%] 28 DAT against Phalaris minor” value ([11]; 1 g of a.i./ha) was 0% and 10%, the “Herbicidal action in [%] 14 DAT against Phalaris minor” value ([11]; 4 g of a.i./ha) was 90% and 85% and the “Herbicidal action in [%] 28 DAT against Phalaris minor” value ([11]; 4 g of a.i./ha) was 70%. For the same compound, the “Herbicidal action in [%] 14 DAT against Phalaris minor” value ([11]; 16 g of a.i./ha) was 85%, the “Herbicidal action against Alopecurus myosuroides” value ([12]; 14 DAT, 1 g of a.i./ha) was 15% and the “Herbicidal action against Alopecurus myosuroides” value ([12]; 14 DAT, 4 g of a.i./ha) was 90%. The “Herbicidal action against Alopecurus myosuroides” value ([12]; 28 DAT, 1 g of a.i./ha) was 15%, the “Herbicidal action against Alopecurus myosuroides” value ([12]; 28 DAT, 4 g of a.i./ha) was 50% and the Herbicidal action [13] was 30%. For the same compound, the “Herbicidal action 37 DAT [%] against Abutilon theophrasti” value [14] was 75%, the “Herbicidal action against Veronica hederifolia” value ([15]; 14 DAT, 1 g of a.i./ha) was 30% and the “Herbicidal action against Veronica hederifolia” value ([15]; 14 DAT, 16 g of a.i./ha) was 40%. For the same compound, the “Herbicidal action against Veronica hederifolia” value ([15]; 28 DAT, 16 g of a.i./ha) was 50%, the “Herbicidal action against Phalaris minor” value ([16]; 14 DAT, 1 g of a.i./ha) was 10% and the “Herbicidal action against Phalaris minor” value ([16]; 14 DAT, 4 g of a.i./ha) was 90%. For the same compound, the “Herbicidal action against Phalaris minor” value ([16]; 14 DAT, 16 g of a.i./ha) was 85%, the “Herbicidal action against Phalaris minor” value ([16]; 28 DAT, 1 g of a.i./ha) was 0% and the “Herbicidal action against Phalaris minor” value ([16]; 28 DAT, 4 g of a.i./ha) was 70%. The “Herbicidal action against Phalaris minor” value ([16]; 28 DAT, 16 g of a.i./ha) was 40%, the “Herbicidal action against Viola tricolor” value ([17]; 14 DAT, 1 g of a.i./ha) was 50% and the “Herbicidal action against Viola tricolor” value ([17]; 14 DAT, 16 g of a.i./ha) was 85%. For the same compound, the “Herbicidal action against Viola tricolor” value ([17]; 28 DAT, 1 g of a.i./ha) was 15%, the “Herbicidal action against Viola tricolor” value ([17]; 28 DAT, 16 g of a.i./ha) was 20% and the “Herbicidal action 43 DAT [%] against Ranunculus repens” value [18] was 82%. For the same compound, the “Herbicidal action against Bromus sterilis” value ([19]; 14 DAT, 1 g of a.i./ha) was 15%, the “Herbicidal action against Bromus sterilis” value ([19]; 14 DAT, 4 g of a.i./ha) was 85% and the “Herbicidal action against Bromus sterilis” value ([19]; 28 DAT, 1 g of a.i./ha) was 15%. For the same compound, the “Herbicidal action in [%] 14 DAT against Lolium rigidum (resistant biotype)” value ([20]; 1 g of a.i./ha) was 15% and 30%, the “Herbicidal action in [%] 28 DAT against Lolium rigidum (resistant biotype)” value ([20]; 1 g of a.i./ha) was 0% and the “Herbicidal action in [%] 14 DAT against Lolium rigidum (resistant biotype)” value ([20]; 4 g of a.i./ha) was 40% and 60%.
